Reference: US9539301B2, “Melanotropin ligands for skin care” (THE ARIZONA BOARD OF REGENTS ON BEHALF OF THE UNIVERSITY OF …, priority 2011, dated 2017)
Blank lines part the entries; values can stand above or below the compound they belong to. Square brackets hold non-standard residues; d marks the D form. Side chains are listed from the residue outwards. Peptide text beside a SMILES is read from it. * marks the point of attachment. Cy5 maleimide = Cy5 dye as its maleimide, reacted with a thiol compound; d2Nal = N[C@H](Cc1ccc2ccccc2c1)C(=O)O; Butanoyl(4-Ph) = O=C(CCCc1ccccc1)*; Butanoyl(4-ethynyl) = C#CCCCC(=O)*; Nle = CCCC[C@H](N)C(=O)O; Mpa = O=C(O)CCS

Legend:
MC1R = MC1R (Homo sapiens, UniProt Q01726); experiment: Europium time-resolved fluorescence competitive binding assay (Eu-NDP-α-MSH) on HCT116/hMC1R cells; set-up: host or cells: HCT116; details: for 1R/4R selectivity (values determined): ratio of MC4R Ki to MC1R Ki
MC1R, sequence (Q01726 whole entry): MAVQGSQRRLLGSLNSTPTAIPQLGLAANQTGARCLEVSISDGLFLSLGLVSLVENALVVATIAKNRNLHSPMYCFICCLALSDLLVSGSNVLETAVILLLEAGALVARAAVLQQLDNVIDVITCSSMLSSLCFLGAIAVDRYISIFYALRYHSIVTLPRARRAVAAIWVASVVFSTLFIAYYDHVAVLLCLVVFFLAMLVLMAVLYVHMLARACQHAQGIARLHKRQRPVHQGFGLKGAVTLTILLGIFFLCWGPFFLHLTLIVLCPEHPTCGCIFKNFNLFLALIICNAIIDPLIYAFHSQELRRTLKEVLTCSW
Procedure: (§1) HCT116 cells overexpressing hMC1R and HEK293 cells overexpressing hMC4R[23] or hMC5R were used in all studies. […] Cells were maintained under standard conditions (37° C. and 5% CO2) and were grown in Dulbecco's modified Eagle medium (DMEM) supplemented with 10% FBS and 5% penicillin/streptomycin. For HCT116/hMC1R cells, geneticin (G418S, 0.4 mg/mL) was added to the media to ensure proper selection.
Competitive binding assays were performed using HCT116/hMC1R cells and HEK293/hMC4R or hMC5R as previously described, with slight modifications. […] Poly-D-Lysine Coated Plates contain a PDL polymer coating that creates a uniform positive charge at the surface of the plastic, thereby facilitating cell attachment, growth and differentiation. […] Both labeled and non-labeled ligands were diluted in binding media (DMEM, 1 mM 1,10-phenanthroline, 200 mg/L bacitracin, 0.5 mg/L leupeptin, 0.3% BSA). In the case of the triblock polymer micelle solutions, micelles were allowed to equilibrate in solution for a period of 30 min prior to cell addition. Cells were incubated with labeled and non-labeled ligands for 1 hour at 37° C. Following incubation, cells were washed three times with wash buffer (50 mM Tris-HCl, 0.2% BSA, 30 mM NaCl) and 50 µL of enhancement solution (PerkinElmer) was added to each well. Cells were incubated for an additional 30 min at 37° C. prior to reading. […] Competition curves were analyzed with GraphPad Prism software using the sigmoidal dose-response (variable slope) classical equation for nonlinear regression analysis.
Competitive binding assays were also performed using 4-targeted triblock polymers, triblock polymer micelles, as well as untargeted micelles as a control (FIG. 4A-C).
Europium binding assays were conducted as previously published.^33, 40
Time-resolved lanthanide fluorescence competitive binding assays^33, 40 were performed in an effort to optimize ligand loading for maximal avidity. In these assays, increasing concentrations of micelles were measured for their ability to competitively displace Eu-labeled NDP-α-MSH 2. The remaining Eu was then measured using time resolved fluorescence (TRF, see Methods).

MC4R = MC4R (Homo sapiens, UniProt P32245); experiment: Europium competitive binding assay on HEK293/hMC4R cells; set-up: expressed in transfected cells; host or cells: HEK293
MC4R, sequence (P32245 whole entry): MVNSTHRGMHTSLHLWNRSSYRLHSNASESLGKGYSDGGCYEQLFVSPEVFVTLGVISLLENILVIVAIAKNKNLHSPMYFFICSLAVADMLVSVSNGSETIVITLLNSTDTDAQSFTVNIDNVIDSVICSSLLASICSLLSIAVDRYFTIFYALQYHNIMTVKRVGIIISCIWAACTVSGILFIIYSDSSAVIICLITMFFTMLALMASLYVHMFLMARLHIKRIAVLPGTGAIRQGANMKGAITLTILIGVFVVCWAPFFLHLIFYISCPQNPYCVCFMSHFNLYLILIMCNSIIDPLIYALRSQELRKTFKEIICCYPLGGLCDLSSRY
Procedure: as §1
Competitive binding assays were performed using HCT116/hMC1R cells and HEK293/hMC4R or hMC5R as previously described, with slight modifications. HCT116/hMC1R cells were plated in black PerkinElmer 96-well plates and HEK293/hMC4R and HEK293/hMC5R cells were plated on SigmaScreen Poly-D-Lysine Coated Plates (SigmaAldrich), all at a density of 10,000-30,000 cells/well. Poly-D-Lysine Coated Plates contain a PDL polymer coating that creates a uniform positive charge at the surface of the plastic, thereby facilitating cell attachment, growth and differentiation. […] Both labeled and non-labeled ligands were diluted in binding media (DMEM, 1 mM 1,10-phenanthroline, 200 mg/L bacitracin, 0.5 mg/L leupeptin, 0.3% BSA). […] Cells were incubated for an additional 30 min at 37° C. prior to reading. […] Competition curves were analyzed with GraphPad Prism software using the sigmoidal dose-response (variable slope) classical equation for nonlinear regression analysis.

MC5R [1] = target: T1, MC5R (Homo sapiens, UniProt P33032); experiment: Europium competitive binding assay on HEK293/hMC5R cells; set-up: expressed in transfected cells; host or cells: HEK293
T1 sequence (P33032 whole entry): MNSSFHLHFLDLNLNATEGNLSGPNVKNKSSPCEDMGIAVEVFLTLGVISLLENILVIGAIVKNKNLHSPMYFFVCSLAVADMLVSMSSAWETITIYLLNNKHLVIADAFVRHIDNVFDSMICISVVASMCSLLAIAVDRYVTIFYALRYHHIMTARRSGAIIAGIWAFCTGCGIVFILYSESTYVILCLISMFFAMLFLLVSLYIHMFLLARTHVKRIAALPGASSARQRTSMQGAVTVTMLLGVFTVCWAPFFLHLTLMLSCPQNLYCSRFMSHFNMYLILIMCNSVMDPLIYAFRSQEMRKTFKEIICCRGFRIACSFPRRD
Procedure: HCT116 cells overexpressing hMC1R and HEK293 cells overexpressing hMC4R[23] or hMC5R were used in all studies. The parental human colorectal carcinoma cell line, HCT116 (American Type Culture Collection, CCL 247) was also used. Cells were maintained under standard conditions (37° C. and 5% CO2) and were grown in Dulbecco's modified Eagle medium (DMEM) supplemented with 10% FBS and 5% penicillin/streptomycin. For HCT116/hMC1R cells, geneticin (G418S, 0.4 mg/mL) was added to the media to ensure proper selection.
Competitive binding assays were performed using HCT116/hMC1R cells and HEK293/hMC4R or hMC5R as previously described, with slight modifications. HCT116/hMC1R cells were plated in black PerkinElmer 96-well plates and HEK293/hMC4R and HEK293/hMC5R cells were plated on SigmaScreen Poly-D-Lysine Coated Plates (SigmaAldrich), all at a density of 10,000-30,000 cells/well. […] Cells were incubated for an additional 30 min at 37° C. prior to reading. The plates were read on a PerkinElmer VICTOR×4 2030 multilabel reader using the standard Eu TRF measurement (340 nm excitation, […], and emission collection for […] at 615 nm). Competition curves were analyzed with GraphPad Prism software using the sigmoidal dose-response (variable slope) classical equation for nonlinear regression analysis. […]

MC5R [2] = target: T1, MC5R; details: footnote: value denotes an EC50; read-out: EC50 MC5R (values derived from literature); cited from earlier work
[3] = system: A375/MC1R xenograft tumor; experiment: Intravital confocal imaging of dorsal skin-fold window chamber tumor xenograft; assay type: in vivo, SCID mouse; details: for tumor cell internalization of probe: 24 h after injection
Procedure: All procedures were carried out in compliance with the Guide for the Care and Use of Laboratory Animal Resources (1996), National Research Council, and approved by the Institutional Animal Care and Use Committee, University of South Florida. A dorsal skin-fold window chamber was used to study the pharmacokinetics of imaging agent uptake immediately after i.v. injection of the probe. Starting 3 days prior to the surgery, mice were daily administered 1 ml of sterile saline subcutaneously at the planned site of the window in order to loosen connective tissue and create a receiving “pocket”. SCID mice were prepared immediately before surgery; the surgical site was shaved, and then a combination of oxygen and isoflurane was used for anesthesia (animals underwent induction with 3.5% isoflurane and were maintained at 1.5-2.0%). The window chamber method utilizes a titanium steel or plexiglass “saddle” that is sutured to the back of the mouse and holds a flap of dorsal skin vertically away from the mouse's body. A small “window” of skin (approximately 5 mm in diameter) was surgically excised from the retained skin flap of the anesthetized SCID mouse. Tumor constructs were engineered using the tumor droplet method. A375/MC1R or A375 parental melanoma cells were suspended in 2.5 mg/ml of type I collagen (BD Biosciences #354249) and 1×DMEM at a final concentration of 2.5×10^6 cells/ml. Using a 48-well non-tissue culture plate, a 15 µl drop of the tumor cell suspension was polymerized in the center of the well. After brief polymerization (10-15 minutes) at 37° C., a microvessel outer layer was added that completely surrounded the droplet. The microvessel outer layer consisted of 3 mg/ml of type I collagen, 1×DMEM and, 12,000 to 15,000 GFP expressing rat microvessel fragments/ml. After 4-6 days of culture at 37 C, the constructs were then implanted into the “window chamber” by placing them directly onto the exposed subcutaneous fascia. A glass cover was then attached to the center of the “saddle” to cover the fascia and implanted tumor cells. […]

Compound: C#CCCCC(=O)NCCCC[C@H](N)C(=O)N[C@@H](Cc1ccc(O)cc1)C(=O)N[C@H](C(=O)N[C@@H](CCCC)C(=O)NCC(=O)N[C@@H](Cc1cnc[nH]1)C(=O)N[C@H](Cc1ccc2ccccc2c1)C(=O)N[C@@H](CCCNC(=N)N)C(=O)N[C@H](Cc1c[nH]c2ccccc12)C(=O)N[C@@H](CC(=O)O)C(=O)N[C@@H](CCCNC(=N)N)C(=O)N[C@@H](Cc1ccccc1)C(=O)NCC(N)=O)C(C)C [Compound 6, H-Lys(hex-5-ynoyl)-Tyr-Val-Nle-Gly-His-DNal(2′)-Arg-DTrp-Asp-Arg-Phe-Gly-NH2]
Ki (MC4R; read-out: Ki MC4R (values determined)): 1.74 nM | Ki (MC5R [1]; read-out: Ki MC5R (values determined)): 1.48 nM

Compound: CCCC[C@H](NC(=O)[C@@H](NC(=O)[C@@H](N)Cc1ccc(O)cc1)C(C)C)C(=O)NCC(=O)N[C@@H](Cc1cnc[nH]1)C(=O)N[C@H](Cc1ccc2ccccc2c1)C(=O)N[C@@H](CCCN=C(N)N)C(=O)N[C@H](Cc1c[nH]c2ccccc12)C(=O)N[C@@H](CC(=O)O)C(=O)N[C@@H](CCCN=C(N)N)C(=O)N[C@@H](Cc1ccccc1)C(=O)NCC(N)=O [Compound 5, H-Tyr-Val-Nle-Gly-His-DNal(2′)-Arg-DTrp-Asp-Arg-Phe-Gly-NH2]
EC50 (MC5R [2]): 3.5 nM

Compound: C#CCCCC(=O)NCCCC[C@H](N)C(=O)N[C@@H](Cc1ccc(O)cc1)C(=O)N[C@H](C(=O)N[C@@H](CCCC)C(=O)NCC(=O)N[C@@H](Cc1c[nH]cn1)C(=O)N[C@H](Cc1ccc2ccccc2c1)C(=O)N[C@@H](CCCNC(=N)N)C(=O)N[C@H](Cc1ccccc1)C(=O)N[C@@H](CC(=O)O)C(=O)N[C@@H](CCCNC(=N)N)C(=O)N[C@@H](Cc1ccccc1)C(=O)NCC(N)=O)C(C)C [Compound 8, H-Lys(hex-5-ynoyl)Tyr-Val-Nle-Gly-His-DNal(2′)-Arg-DPhe-Asp-Arg-Phe-Gly-NH2] (H-K(Butanoyl(4-ethynyl))YV[Nle]GH[d2Nal]R[dF]DRFG-NH2)
1R/4R selectivity (values determined) (MC1R): 1.05

Compound: MC1R-Cy5: MC1R ligand conjugated to Cy5 maleimide dye ({Butanoyl(4-Ph)}-H[dF]RWGK([Mpa-Cy5 maleimide])-NH2)
tumor cell internalization of probe [3]: fully internalized | tumor cell internalization of probe ([3]; listed as MC1R-635 probe): detected inside the cells | time at which probe binds tumor cells in vivo ([3]; after i.v. injection, 5 nmol/kg): ≤ 5 min

Next, values leading:

1R/4R selectivity (values determined) (MC1R): 1000 | 1R/5R selectivity (values determined) (MC1R; ratio of MC5R Ki to MC1R Ki): 200
Compound: C#CCCCC(=O)NCCCC[C@H](NC(=O)CNC(=O)[C@H](Cc1c[nH]c2ccccc12)NC(=O)[C@H](CCCNC(=N)N)NC(=O)[C@@H](Cc1ccccc1)NC(=O)[C@H](Cc1c[nH]cn1)NC(=O)CCCc1ccccc1)C(N)=O [Compound 4, 4-phenylbutyry1-His-DPhe-Arg-Trp-Gly-Lys(hex-5-ynoyl)-NH2] ({Butanoyl(4-Ph)}-H[dF]RWGK(Butanoyl(4-ethynyl))-NH2)

Ki (MC1R; HCT116/hMC1R cells, competition with Eu-NDP-α-MSH, read-out: Ki MC1R (values determined)): 1.77 nM
Compound: CC(=O)N[C@@H](CCc1ccccc1)C(=O)N[C@@H](Cc1cnc[nH]1)C(=O)N[C@H](Cc1ccccc1)C(=O)N[C@@H](CCCN=C(N)N)C(=O)N[C@@H](Cc1c[nH]c2ccccc12)C(N)=O [Compound 2, Ac-Homophenylalanine-His-DPhe-Arg-Trp-NH2]

Ki MC1R (values determined) (MC1R; HCT116/hMC1R cells, competition with Eu-NDP-α-MSH): no affinity | Ki MC4R (values determined) (MC4R): no affinity | Ki MC5R (values determined) (MC5R [1]): no affinity
Compound: N=C(N)NCCC[C@H](NC(=O)[C@@H](Cc1ccccc1)NC(=O)[C@H](Cc1c[nH]cn1)NC(=O)C=Cc1ccc(O)cc1)C(=O)N[C@@H](Cc1c[nH]c2ccccc12)C(N)=O [Compound 3, 4-hydroxycinnamoyl-His-DPhe-Arg-Trp-NH2]
